How the values were obtained:
PRMT5 [1] = target: T1, PRMT5 (Homo sapiens, UniProt O14744); assay: PRMT5 biochemical IC50 assay with SAM as cofactor; conditions: PRMT5, SAM as cofactor; read-out: SAM IC50
T1 construct: purchased Viva (custom protein)

PRMT5 [2] = target: T1, PRMT5; assay: PRMT5 biochemical IC50 assay with no cofactor; conditions: PRMT5, no cofactor; read-out: No Cofactor/rel IC50
From the text: Table 1 indicates IC50 values (μM) against PRMT5 for exemplary compounds in the presence of SAM as cofactor, with no cofactor, and with MTA as cofactor, respectively (columns 4-6). […] Ki values can be calculated from the IC50 values as described in the Examples section. As detailed in the Examples section, for the assay performed in the presence of SAM, IC50=Ki×1.5 (Ki=IC50/1.5).

PRMT5 [3] = target: T1, PRMT5; assay: PRMT5 biochemical IC50 assay with MTA as cofactor; conditions: PRMT5, MTA as cofactor; read-out: MTA IC50
[4] = test system: HAP1 MTAP-intact cell line; assay: SDMA in-cell western assay, HAP1 MTAP-intact; type: cell-based; conditions: Homo sapiens, HAP1, SDMA in-cell western, HAP1 MTAP-intact; read-out: MTAP HAP1 intact IC50
Procedure, shortened: (§1)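 Isogenic HAP1 pair: the MTAP-intact line expresses endogenous MTAP, and the deleted line is MTAP-null. Symmetric dimethylarginine was detected by in-cell western and IC50 values derived for each line.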

[5] = test system: HAP1 MTAP-deleted cell line; assay: SDMA in-cell western assay, HAP1 MTAP-deleted; type: cell-based; conditions: for IC50: Homo sapiens, HAP1, SDMA in-cell western, HAP1 MTAP-deleted, read-out: HAP1 MTAP deleted IC50; for MTAP intact/deleted ratio: IC50 ratio HAP1 MTAP-intact / HAP1 MTAP-deleted, SDMA in-cell western
Procedure, shortened: as §1

[6] = test system: HAP1 MTAP-deleted cell line; assay: Viability assay, MTAP-deleted cell line; type: cell-based; conditions: Homo sapiens, HAP1, viability assay, HAP1 MTAP-deleted; read-out: HAP1 MTAP deleted viability
From the text: Table 1 additionally indicates IC50 values in a viability assay for the MTAP-deleted cell line (column 10), indicating the effect of treatment with compound on cell survival.

T1 sequence (O14744 whole entry): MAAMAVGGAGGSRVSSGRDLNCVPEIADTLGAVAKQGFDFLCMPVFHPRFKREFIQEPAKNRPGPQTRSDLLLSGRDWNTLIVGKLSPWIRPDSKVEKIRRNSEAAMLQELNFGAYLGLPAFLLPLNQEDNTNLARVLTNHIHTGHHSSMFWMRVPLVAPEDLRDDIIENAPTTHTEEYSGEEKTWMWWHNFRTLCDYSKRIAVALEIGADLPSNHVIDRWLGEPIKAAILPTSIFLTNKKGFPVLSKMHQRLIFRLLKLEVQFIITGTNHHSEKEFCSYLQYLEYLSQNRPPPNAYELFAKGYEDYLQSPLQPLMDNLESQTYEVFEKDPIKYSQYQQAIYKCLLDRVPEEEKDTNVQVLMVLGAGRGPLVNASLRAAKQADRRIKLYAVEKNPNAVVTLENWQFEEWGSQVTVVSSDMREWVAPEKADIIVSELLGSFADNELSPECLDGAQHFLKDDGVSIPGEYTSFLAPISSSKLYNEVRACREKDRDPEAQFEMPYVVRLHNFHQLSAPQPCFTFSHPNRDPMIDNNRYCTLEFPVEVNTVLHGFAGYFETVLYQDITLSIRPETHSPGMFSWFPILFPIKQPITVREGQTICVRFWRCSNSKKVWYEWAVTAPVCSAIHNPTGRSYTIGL
T1 sequence (Q9BQA1 whole entry partner): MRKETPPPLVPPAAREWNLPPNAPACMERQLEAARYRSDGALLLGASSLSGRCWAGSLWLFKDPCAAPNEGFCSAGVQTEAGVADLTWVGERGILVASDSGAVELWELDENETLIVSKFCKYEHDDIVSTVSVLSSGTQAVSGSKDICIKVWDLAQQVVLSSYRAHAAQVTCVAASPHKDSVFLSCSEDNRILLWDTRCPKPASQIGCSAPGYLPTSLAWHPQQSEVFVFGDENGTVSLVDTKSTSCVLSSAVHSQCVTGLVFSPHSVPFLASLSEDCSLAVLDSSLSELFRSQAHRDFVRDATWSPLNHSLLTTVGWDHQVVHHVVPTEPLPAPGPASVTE

## C[C@@H]1CC[C@@H](c2ccc(-c3nccs3)cc2)N(C(=O)C(=O)Nc2cncc(C(N)=O)c2)C1 (single isomer, unassigned) [Compound 783]
PRMT5 [1]
  IC50: 50 to 500 nM
PRMT5 [2]
  IC50: 50 to 500 nM
PRMT5 [3]
  IC50: < 50 nM
[4]
  IC50: > 1000 nM
[5]
  IC50: < 100 nM
  MTAP intact/deleted ratio: A (an IC50 ratio greater than or equal to 10 fold)
[6]
  IC50: 1000 to 10000 nM

## CCc1cc(NC(=O)C(=O)N2C[C@@H](C)CC[C@@H]2c2ccc(C)nc2)cnc1N (single isomer, unassigned) [Compound 784]
PRMT5 [1]
  IC50: 50 to 500 nM
PRMT5 [2]
  IC50: < 50 nM
PRMT5 [3]
  IC50: < 50 nM
[4]
  IC50: > 1000 nM
[5]
  IC50: < 100 nM
  MTAP intact/deleted ratio: A (an IC50 ratio greater than or equal to 10 fold)
[6]
  IC50: < 1000 nM

## Cc1cc(NC(=O)C(=O)N2C[C@H](C)CC[C@H]2c2cccc3[nH]ncc23)cnc1N (single isomer, unassigned) [Compound 785]
PRMT5 [1]
  IC50: 50 to 500 nM
PRMT5 [2]
  IC50: < 50 nM
PRMT5 [3]
  IC50: < 50 nM
[4]
  IC50: 100 to 1000 nM
[5]
  IC50: < 100 nM
  MTAP intact/deleted ratio: A (an IC50 ratio greater than or equal to 10 fold)
[6]
  IC50: < 1000 nM

## Cc1cc(NC(=O)C(=O)N2C[C@@H](C)C(F)(F)C[C@@H]2c2ccc(F)cc2)cnc1N (single isomer, unassigned) [Compound 786]
PRMT5 [1]
  IC50: 50 to 500 nM
PRMT5 [2]
  IC50: < 50 nM
PRMT5 [3]
  IC50: < 50 nM
[4]
  IC50: 100 to 1000 nM
[5]
  IC50: < 100 nM
  MTAP intact/deleted ratio: A (an IC50 ratio greater than or equal to 10 fold)
[6]
  IC50: < 1000 nM

## C[C@@H]1CC[C@@H](c2ccc3[nH]ncc3n2)N(C(=O)C(=O)Nc2cncc(C(N)=O)c2)C1 (single isomer, unassigned) [Compound 787]
PRMT5 [1]
  IC50: > 500 nM
PRMT5 [2]
  IC50: > 500 nM
PRMT5 [3]
  IC50: > 500 nM
[4]
  IC50: > 1000 nM
[5]
  IC50: > 1000 nM
  MTAP intact/deleted ratio: C (an IC50 ratio of less than 3 fold)
[6]
  IC50: > 10000 nM

## Cc1cc(NC(=O)C(=O)N2C[C@H](C)CC[C@H]2c2ccc3[nH]ncc3n2)cnc1N (single isomer, unassigned) [Compound 788]
PRMT5 [1]
  IC50: 50 to 500 nM
PRMT5 [2]
  IC50: < 50 nM
PRMT5 [3]
  IC50: < 50 nM
[4]
  IC50: 100 to 1000 nM
[5]
  IC50: < 100 nM
  MTAP intact/deleted ratio: A (an IC50 ratio greater than or equal to 10 fold)
[6]
  IC50: < 1000 nM

## Cc1cc(NC(=O)C(=O)N2C[C@@H](C)CC[C@@H]2c2ccn(-c3cc[nH]n3)n2)cnc1N (single isomer, unassigned) [Compound 789]
PRMT5 [1]
  IC50: > 500 nM
PRMT5 [2]
  IC50: > 500 nM
PRMT5 [3]
  IC50: > 500 nM
[4]
  IC50: > 1000 nM
[5]
  IC50: > 1000 nM
  MTAP intact/deleted ratio: B (an IC50 ratio greater than or equal to 3 fold but lower than 10 fold)
[6]
  IC50: > 10000 nM

## Cc1cc(NC(=O)C(=O)N2C[C@@H](C)CC[C@@H]2c2cccc3[nH]ncc23)cnc1N (single isomer, unassigned) [Compound 790]
PRMT5 [1]
  IC50: > 500 nM
PRMT5 [2]
  IC50: > 500 nM
PRMT5 [3]
  IC50: > 500 nM
[4]
  IC50: > 1000 nM
[5]
  IC50: 100 to 1000 nM
  MTAP intact/deleted ratio: A (an IC50 ratio greater than or equal to 10 fold)
[6]
  IC50: > 10000 nM

## C[C@@H]1CC[C@@H](c2ccc(C(N)=O)s2)N(C(=O)C(=O)Nc2cncc(C(N)=O)c2)C1 (single isomer, unassigned) [Compound 792]
PRMT5 [1]
  IC50: 50 to 500 nM
PRMT5 [2]
  IC50: < 50 nM
PRMT5 [3]
  IC50: < 50 nM
[4]
  IC50: > 1000 nM
[5]
  IC50: < 100 nM
  MTAP intact/deleted ratio: A (an IC50 ratio greater than or equal to 10 fold)
[6]
  IC50: 1000 to 10000 nM

## COc1ncc(NC(=O)C(=O)N2C[C@H](C)CC[C@H]2c2ccc3[nH]cnc3c2)cc1C(N)=O (single isomer, unassigned) [Compound 794]
PRMT5 [1]
  IC50: 50 to 500 nM
PRMT5 [2]
  IC50: < 50 nM
PRMT5 [3]
  IC50: < 50 nM
[4]
  IC50: > 1000 nM
[5]
  IC50: < 100 nM
  MTAP intact/deleted ratio: A (an IC50 ratio greater than or equal to 10 fold)
[6]
  IC50: < 1000 nM

## C[C@@]1(F)CC[C@H](c2ccccc2)N(C(=O)C(=O)Nc2cncc(C(N)=O)c2)C1 (single isomer, unassigned) [Compound 795, 5-(2-(5-fluoro-5-methyl-2-phenylpiperidin-1-yl)-2-oxoacetamido)nicotinamide]
PRMT5 [1]
  IC50: 50 to 500 nM
PRMT5 [2]
  IC50: 50 to 500 nM
PRMT5 [3]
  IC50: < 50 nM
[4]
  IC50: > 1000 nM
[5]
  IC50: < 100 nM
  MTAP intact/deleted ratio: A (an IC50 ratio greater than or equal to 10 fold)
[6]
  IC50: 1000 to 10000 nM

## C[C@H]1CC[C@H](c2ccc(C(N)=O)s2)N(C(=O)C(=O)Nc2cncc(C(N)=O)c2)C1 (single isomer, unassigned) [Compound 796]
PRMT5 [1]
  IC50: > 500 nM
PRMT5 [2]
  IC50: > 500 nM
PRMT5 [3]
  IC50: > 500 nM
[4]
  IC50: > 1000 nM
[5]
  IC50: > 1000 nM
  MTAP intact/deleted ratio: C (an IC50 ratio of less than 3 fold)
[6]
  IC50: > 10000 nM

## COc1ncc(NC(=O)C(=O)N2C[C@@H](C)CC[C@@H]2c2ccc3sc(C)nc3c2)cc1C(N)=O (single isomer, unassigned) [Compound 797]
PRMT5 [1]
  IC50: 50 to 500 nM
PRMT5 [2]
  IC50: < 50 nM
PRMT5 [3]
  IC50: < 50 nM
[4]
  IC50: > 1000 nM
[5]
  IC50: < 100 nM
  MTAP intact/deleted ratio: A (an IC50 ratio greater than or equal to 10 fold)
[6]
  IC50: < 1000 nM

## C[C@]1(F)CC[C@@H](c2ccccc2)N(C(=O)C(=O)Nc2cncc(C(N)=O)c2)C1 (single isomer, unassigned) [Compound 798, 5-(2-(5-fluoro-5-methyl-2-phenylpiperidin-1-yl)-2-oxoacetamido)nicotinamide]
PRMT5 [1]
  IC50: > 500 nM
PRMT5 [2]
  IC50: > 500 nM
PRMT5 [3]
  IC50: > 500 nM
[4]
  IC50: > 1000 nM
[5]
  IC50: > 1000 nM
  MTAP intact/deleted ratio: C (an IC50 ratio of less than 3 fold)
[6]
  IC50: > 10000 nM

## COc1ncc(NC(=O)C(=O)N2C[C@H](C)CC[C@H]2c2ccc(-c3nccs3)cc2)cc1C(N)=O (single isomer, unassigned) [Compound 799]
PRMT5 [1]
  IC50: > 500 nM
PRMT5 [2]
  IC50: > 500 nM
PRMT5 [3]
  IC50: > 500 nM
[4]
  IC50: > 1000 nM
[5]
  IC50: > 1000 nM
  MTAP intact/deleted ratio: C (an IC50 ratio of less than 3 fold)
[6]
  IC50: > 10000 nM

## CCc1cc(NC(=O)C(=O)N2C[C@@H](C)CC[C@@H]2c2ccc3sc(C)nc3c2)cnc1N (single isomer, unassigned) [Compound 800]
PRMT5 [1]
  IC50: 50 to 500 nM
PRMT5 [2]
  IC50: < 50 nM
PRMT5 [3]
  IC50: < 50 nM
[4]
  IC50: 100 to 1000 nM
[5]
  IC50: < 100 nM
  MTAP intact/deleted ratio: A (an IC50 ratio greater than or equal to 10 fold)
[6]
  IC50: < 1000 nM

## CCc1cc(NC(=O)C(=O)N2C[C@H](C)CC[C@H]2c2ccc3sc(C)nc3c2)cnc1N (single isomer, unassigned) [Compound 801]
PRMT5 [1]
  IC50: > 500 nM
PRMT5 [2]
  IC50: > 500 nM
PRMT5 [3]
  IC50: > 500 nM
[4]
  IC50: > 1000 nM
[5]
  IC50: > 1000 nM
  MTAP intact/deleted ratio: B (an IC50 ratio greater than or equal to 3 fold but lower than 10 fold)
[6]
  IC50: > 10000 nM

## Cc1cc(NC(=O)C(=O)N2C[C@H](C)CC[C@H]2c2ccc(CO)cc2)cnc1N (single isomer, unassigned) [Compound 802]
PRMT5 [1]
  IC50: > 500 nM
PRMT5 [2]
  IC50: > 500 nM
PRMT5 [3]
  IC50: > 500 nM
[4]
  IC50: > 1000 nM
[5]
  IC50: > 1000 nM
  MTAP intact/deleted ratio: B (an IC50 ratio greater than or equal to 3 fold but lower than 10 fold)
[6]
  IC50: > 10000 nM

## C[C@@H]1CC[C@@H](c2ccc3[nH]c(=O)ccc3c2)N(C(=O)C(=O)Nc2cncc(C(N)=O)c2)C1 (single isomer, unassigned) [Compound 804]
PRMT5 [1]
  IC50: > 500 nM
PRMT5 [2]
  IC50: > 500 nM
PRMT5 [3]
  IC50: > 500 nM
[4]
  IC50: > 1000 nM
[5]
  IC50: > 1000 nM
  MTAP intact/deleted ratio: C (an IC50 ratio of less than 3 fold)
[6]
  IC50: > 10000 nM

## COc1ncc(NC(=O)C(=O)N2C[C@@H](C)CC[C@@H]2c2ccc3[nH]cnc3c2)cc1C(N)=O (single isomer, unassigned) [Compound 805]
PRMT5 [1]
  IC50: > 500 nM
PRMT5 [2]
  IC50: > 500 nM
PRMT5 [3]
  IC50: > 500 nM
[4]
  IC50: > 1000 nM
[5]
  IC50: 100 to 1000 nM
  MTAP intact/deleted ratio: A (an IC50 ratio greater than or equal to 10 fold)
[6]
  IC50: > 10000 nM

## Cc1cc(NC(=O)C(=O)N2C[C@@H](C)CC[C@@H]2c2ccc(CO)cc2)cnc1N (single isomer, unassigned) [Compound 806]
PRMT5 [1]
  IC50: 50 to 500 nM
PRMT5 [2]
  IC50: < 50 nM
PRMT5 [3]
  IC50: < 50 nM
[4]
  IC50: 100 to 1000 nM
[5]
  IC50: < 100 nM
  MTAP intact/deleted ratio: A (an IC50 ratio greater than or equal to 10 fold)
[6]
  IC50: < 1000 nM

## COc1ncc(NC(=O)C(=O)N2C[C@@H](C)CC[C@@H]2c2ccc3[nH]c(=O)ccc3c2)cc1C(N)=O (single isomer, unassigned) [Compound 807]
PRMT5 [1]
  IC50: 50 to 500 nM
PRMT5 [2]
  IC50: < 50 nM
PRMT5 [3]
  IC50: < 50 nM
[4]
  IC50: 100 to 1000 nM
[5]
  IC50: < 100 nM
  MTAP intact/deleted ratio: A (an IC50 ratio greater than or equal to 10 fold)
[6]
  IC50: < 1000 nM

Reference: patent US11999727B2 (Tango Therapeutics, Inc., priority 2020, dated 2024)
